16 compounds from PubChem BioAssay (NCI) can be followed below.

Structures are written as SMILES.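 Protocol summary: plate cells (96-well), add compound at 5 concentrations, incubate 48 h, interpolate endpoints linearly. The concentration for 50% growth inhibition is given as GI50. TGI denotes the concentration required for complete inhibition of growth.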

Test systems include K-562 leukemia; OVCAR-8 ovarian; HCT-116 colon; A549 NSCLC; SK-MEL-2 melanoma; HCT-15 colon; A498 renal; CCRF-CEM leukemia.
Common to all, as to assay: NCI anticancer screen, dose series, 48 h

As to `CC(=O)CC(=O)CCCC(=O)Nc1ccc(Cl)cc1Cl`, the TGI in the test with K-562 leukemia, in the test on OVCAR-8 ovarian, in the test with HCT-116 colon, in the test with A549 NSCLC, with SK-MEL-2 melanoma and in the test with HCT-15 colon was greater than 100 µM throughout.

Take `N#CC12CCC(O)C(CC1)C2=O` (stereo not drawn): the TGI in the test on K-562 leukemia, in the test on OVCAR-8 ovarian, with HCT-116 colon, with A549 NSCLC, in the test with SK-MEL-2 melanoma and in the test on A498 renal was greater than 100 µM each time. Besides, the TGI in the test with CCRF-CEM leukemia and in the test with HCT-15 colon was greater than 100 µM each time.

Regarding `O=NN(CCCl)C(=O)NCc1ccc[n+]([O-])c1`, the TGI with K-562 leukemia, in the test on OVCAR-8 ovarian, with HCT-116 colon, with A549 NSCLC, in the test on SK-MEL-2 melanoma and in the test with CCRF-CEM leukemia was greater than 100 µM each time. The compound further gave a TGI in the test with HCT-15 colon greater than 100 µM.

On to `CC1(c2ccccc2)CC12C(=O)NC(=O)NC2=O` (stereo not drawn), for which the TGI in the test with K-562 leukemia, in the test with OVCAR-8 ovarian, in the test with HCT-116 colon, in the test on A549 NSCLC, with SK-MEL-2 melanoma and in the test on CCRF-CEM leukemia was greater than 100 µM in each case. In the test on HCT-15 colon, this compound had a TGI greater than 100 µM.

As for `O=C1C2c3[nH]c4ccccc4c3C3CCSCC3C2C(=O)N1c1ccccc1` (stereo not drawn), the TGI in the test on K-562 leukemia, with OVCAR-8 ovarian, with HCT-116 colon, with A549 NSCLC, with SK-MEL-2 melanoma and in the test with A498 renal was greater than 100 µM throughout. Further, the TGI in the test on CCRF-CEM leukemia and in the test on HCT-15 colon was greater than 100 µM each time.

Take `CCCOP1(=O)C=C(C)C(Cl)=C(C)C1` (stereo not drawn): the TGI with K-562 leukemia is greater than 100 µM; in the test on OVCAR-8 ovarian, greater than 100 µM; in the test on HCT-116 colon, 47.5 µM; in the test on A549 NSCLC, 61.3 µM; in the test with SK-MEL-2 melanoma, 32.2 µM; in the test on CCRF-CEM leukemia, 59.3 µM. This compound displayed a TGI in the test on HCT-15 colon of 58.4 µM.

For the compound `N.N.NCCCCN.O=C([O-])CC(=O)[O-].O=C([O-])CC(=O)[O-].[Pt+4].[Pt+4]`, the GI50 in the test with K-562 leukemia, with OVCAR-8 ovarian, in the test with HCT-116 colon, with A549 NSCLC, with SK-MEL-2 melanoma and in the test with A498 renal was greater than 100 µM throughout. For the same compound, the GI50 was 35.6 µM with CCRF-CEM leukemia and greater than 100 µM in the test with HCT-15 colon. Also, the TGI in the test with K-562 leukemia, in the test on OVCAR-8 ovarian, in the test with HCT-116 colon, in the test with A549 NSCLC, in the test with SK-MEL-2 melanoma and in the test with A498 renal was greater than 100 µM each time. The TGI with CCRF-CEM leukemia and with HCT-15 colon was greater than 100 µM throughout.

On to `COCC1N=C(c2ccc(OC)c(OCc3ccccc3)c2OC)O[C@H]1c1ccccc1` (stereo partly drawn), for which the TGI with K-562 leukemia is greater than 100 µM; in the test with OVCAR-8 ovarian, greater than 100 µM; with HCT-116 colon, 34.5 µM; with A549 NSCLC, greater than 100 µM; in the test on SK-MEL-2 melanoma it was 53.3 µM; with A498 renal, 79.7 µM. Moreover, the TGI in the test with CCRF-CEM leukemia stood at 60.8 µM; in the test on HCT-15 colon, 94.5 µM.

Turning to `CC1=C2C(=CC(C)(CO)C2O)C(=O)C(C)(O)C12CC2` (stereo not drawn), the TGI in the test on K-562 leukemia amounted to 0.105 µM; in the test on OVCAR-8 ovarian, 0.0127 µM; with HCT-116 colon, 0.0478 µM; in the test with A549 NSCLC, 0.0902 µM; in the test on SK-MEL-2 melanoma, 0.00422 µM; in the test on A498 renal it was 0.0204 µM. Also, the TGI was determined as 0.0686 µM in the test with CCRF-CEM leukemia and 0.0462 µM in the test on HCT-15 colon. In addition, the GI50 in the test on CCRF-CEM leukemia is 0.00172 µM.

For the compound `N#C[C@]12CC3(CC[C@H]1CC1(C2)OCCO1)OCCO3`, the TGI with K-562 leukemia, with OVCAR-8 ovarian, in the test on HCT-116 colon, with A549 NSCLC, in the test on SK-MEL-2 melanoma and with A498 renal was greater than 100 µM each time. The TGI with CCRF-CEM leukemia and with HCT-15 colon was greater than 100 µM each time.

`Nc1ccc(CCN2CCN(c3cccc(C(F)(F)F)c3)CC2)cc1`: the TGI in the test on K-562 leukemia, in the test with OVCAR-8 ovarian, in the test on HCT-116 colon, in the test with A549 NSCLC, in the test with A498 renal and with CCRF-CEM leukemia was greater than 100 µM each time. In the test on HCT-15 colon, this compound came in with a TGI greater than 100 µM.

As to `CCC12CCC(O)C1N(C)CCC2Sc1ccccc1` (stereo not drawn), the TGI in the test on K-562 leukemia, with OVCAR-8 ovarian, in the test on HCT-116 colon, in the test on A549 NSCLC, with SK-MEL-2 melanoma and with A498 renal was greater than 100 µM in each case. Further, the TGI in the test on CCRF-CEM leukemia and in the test with HCT-15 colon was greater than 100 µM in each case.

Regarding `C=CC[P@@]1(=O)O[C@H](c2ccccc2)C(C)N1C(C)C` (stereo partly drawn), the TGI with K-562 leukemia, with OVCAR-8 ovarian, in the test on A549 NSCLC, in the test with A498 renal, in the test on CCRF-CEM leukemia and with HCT-15 colon was greater than 100 µM each time.

With `O=[N+]([O-])c1ccc2c(c1)OCCOCCOc1ccc([N+](=O)[O-])cc1OCCOCCO2`, the TGI in the test on K-562 leukemia, with OVCAR-8 ovarian, with HCT-116 colon, with A549 NSCLC, in the test with SK-MEL-2 melanoma and in the test with A498 renal was greater than 100 µM in each case. Further, the TGI with CCRF-CEM leukemia and in the test with HCT-15 colon was greater than 100 µM in each case.

Regarding `O=C1C(c2ccc(Cl)cc2)=[N+]([O-])c2ccccc21`, the TGI stood at 68.5 µM with K-562 leukemia; 25 µM with OVCAR-8 ovarian; 27.8 µM in the test on HCT-116 colon; 37.7 µM with A549 NSCLC; 77.3 µM in the test on SK-MEL-2 melanoma; 86.9 µM with A498 renal. In addition, the results for the TGI in the test with CCRF-CEM leukemia and in the test with HCT-15 colon were 25.5 µM and 41.3 µM, respectively.

With `O=C(c1ccccc1)c1ccc2cccc(O)c2n1`, the TGI is greater than 100 µM with K-562 leukemia; 71.9 µM in the test with OVCAR-8 ovarian; 35.1 µM in the test with HCT-116 colon; greater than 100 µM in the test on A549 NSCLC; greater than 100 µM in the test with SK-MEL-2 melanoma; 51.8 µM in the test with CCRF-CEM leukemia. In the test on HCT-15 colon, the TGI was greater than 100 µM.
